Measurements reported in patent publication US20260115177A1, “MEDICINAL PRODUCTS AND METHODS FOR THE ALLEVIATION OF CANCER IMMUNOTHERA-PY-ASSOCIATED CYTOKINE RELEASE SYNDROME” (POOLBEG PHARMA (UK) LIMITED, priority 2023, published 2026).

Experiments:
[1] = system: HUVEC endothelial cells; assay: IL-6 and IL-8 ELISA of HUVEC cells treated with sCART-mono supernatant; type: cell-based, human; settings: 24 hr, concentrations of Table 2
Description: (§1) With reference to FIG. 13 of the accompanying drawings, a co-culture (100) is established using a standard cell culture transwell dish, including a first compartment (101), containing CAR T cells and cancer cells (at a 1:1 ratio), which is separated from a second compartment (102), containing monocytes, by a semi-permeable membrane (103) composed of tissue-culture treated polyethylene terephthalate with a 0.4 μm pore size.
(§2) Each of UR-13870, Acumapimod and Ralimetinib are administered to the co-culture following a procedure analogous to that described in Example 2 above (at the concentrations as shown in Table 2 above).
(§3) The co-culture is incubated at 37° C., 5% CO2 and a suitably humid environment for 24 hours. On completion, the transwell insert is removed and supernatant is isolated. Cells and debris are removed from the supernatant by exposing the container to a centripetal force of 400 G and gently pipetting the supernatant into a new container without disturbing the cell pellet at the bottom of the previous container.
(§4) Prior to adding the p38 inhibitors and sCART-mono, endothelial cells are incubated overnight at 37° C. and 5% CO2 in a suitably humid environment to allow the cells to adhere fully to the tissue culture dish.
Supernatant levels of IL-6 and IL-8 are determined following 24 hr treatment with sCART-mono and the p38 MAPK inhibitors by ELISA.

[2] = system: CAR T cells; assay: TNFα immunosorbent assay of CAR T:tumour cell co-culture supernatant; type: cell-based, human
Description: (§5) UR-13870, Ralimetinib or Acumapimod are each added to a culture of CD19+ cancer cells (using a micropipette to transfer the correct volume to achieve the desired final concentration in Table 2).
(§6) CAR T cells are then added to the same culture 5-10 minutes later. In brief, CAR T cell concentrations per ml are determined and used to aliquot the desired number of CAR T cells into the culture to achieve the described 1:1 CAR T to cancer cell ratio.
(§7) The co-culture containing CAR T cells and tumour cells is swirled gently to ensure homogenous dispersion of cells throughout the vessel. The resultant co-culture is incubated for 24 to 96 hours in a closed incubator at 37° C. with 5% CO2 and a suitably humid atmosphere.
Cytokine release by T cells is also quantified by TNFα enzyme-based immunosorbent assays of co-culture supernatant, as shown in FIG. 9. Ralimetinib and Acumapimod reduced TNF-α secretion following treatment. Data for UR-13870 were discarded due to failures in the UR-13870 experimental procedure.

[3] = system: HUVEC endothelial cells; assay: IL-6 and IL-8 ELISA of HUVEC endothelial cells treated with sCAR; type: cell-based, human; settings: sCAR stimulation, 24 hours; concentrations of Table 2
Description: (§8) In like manner and also in Example 3 below, sCAR (or smCAR) is added to endothelial (HUVEC) cells, available from the American Type Culture Collection, and using an equivalent protocol to the treatment of THP-1 cells (but with individually optimised conditions, such as the concentration of sCAR used), following which IL-6 release and IL-8 release are observed. Pro-inflammatory cytokines IL-6 and IL-8 are measured using an enzyme-linked immunosorbent assay (ELISA) and IL-6, ICAM1 and VCAM1 are measured by quantitative PCR (QPCR, for which a kit is suitably obtainable from Thermo Fisher Scientific of Kingfisher Dr, Swindon SN3 5BZ, UK).
(§9) sCAR (or smCAR), produced as described in Example 1 above, is added to a monoculture of HUVEC endothelial cells in the presence of UR-13870, Ralimetinib or Acumapimod at each of the concentrations shown in Table 2 above, at 37° C., 5% CO2 and a suitably humid environment for 24 hours.
Supernatant levels of IL-6 and IL-8 from the HUVEC endothelial cell monoculture with sCAR (or smCAR) are determined by ELISA.

[4] = system: CD19+ cancer cells; assay: CAR T cell killing of tumour cells in 24-hour co-culture (flow cytometry); type: cell-based, human; settings: high dose only, CAR T to cancer cell ratio 1:1
Excerpt: Raji immortalized human B cell line CD19-expressing cancer cells (available from the American Type Culture Collection) are acquired and stable transfection of the Raji cell line is generated with an mCherry reporter protein to facilitate identification of the cancer cells within co-cultures by detection of the mCherry protein fluorescence by flow cytometry.
as §5, §6, §7
Tumour cell death is observed by examining relative CAR T cell:tumour cell numbers by flow cytometry following 24 hour co-culture, as shown in FIG. 7.

[5] = system: HUVEC endothelial cells; assay: QPCR of ICAM1 in HUVEC cells treated with sCART-mono supernatant; type: cell-based, human; settings: 24 hours
Description: as §1, §2, §3, §4
Reduced endothelial cell activation is evidenced by reduced ICAM1 expression in response to treatment with UR-13870, Acumapimod and Ralimetinib.

[6] = system: CAR T cells; assay: T cell exhaustion markers TIM3 and LAG3 on CAR T cells in co-culture (flow cytometry); type: cell-based, human; settings: CAR T:tumour cell co-culture, concentrations of Table 2; for number of LAG3+ CAR T cells: Ralimetinib 5 μM results to be disregarded
Description: as §5, §6, §7
Both T cell surface markers T cell immunoglobulin and mucin domain-containing protein 3 (TIM3/CD366) and Lymphocyte Activation Gene 3 (LAG3/CD223) are associated with T cell exhaustion and disease progression during immunotherapy treatment. Advantageously, all of UR-13870, Ralimetinib and Acumapimod reduce both the number of TIM3+ CAR T cells, and the number of LAG3+ CAR T cells. […] For LAG3+, the results for Ralimetinib at a 5 μM concentration appear to have been affected by experimental failure, and these may be disregarded accordingly.

[7] = system: THP-1 monocytes; assay: IL-6 ELISA of THP-1 monocytes treated with sCAR; type: cell-based, human; settings: sCAR stimulation, 24 hours; concentrations of Table 2
Description: In Example 3 below, sCAR (or smCAR) is added using a micropipette to an in vitro culture of monocyte cells of the human monocytic cell line THP-1, available from the American Type Culture Collection. The culture is incubated in a closed incubator at 37° C. with 5% CO2 and a suitably humid atmosphere for approximately 24 hours, following which cytokine release is observed. p38 MAPK activation and cytokine release are confirmed by evaluation of the presence of IL-6 in THP-1 cells using an enzyme-linked immunosorbent assay (ELISA; for which a kit is suitably obtainable from Thermo Fisher Scientific of Kingfisher Dr, Swindon SN3 5BZ, UK).
(i) Monocytes sCAR (or smCAR), produced as described in Example 1 above, is added to a monoculture of THP-1 monocytes in the presence of UR-13870, Ralimetinib or Acumapimod at each of the concentrations shown in Table 2 above at 37° C., 5% CO2 and a suitably humid environment for 24 hours.
Supernatant levels of IL-6 from the THP-1 monocyte monoculture with sCAR (or smCAR) are determined by ELISA.

[8] = system: CAR T cells; assay: CAR T cell proliferation in CAR T cell:cancer cell co-culture (Cell Trace Violet, flow cytometry); type: cell-based, human; settings: CAR T:tumour cell co-culture 1:1; concentrations of Table 2
Description: CAR T cell proliferation is confirmed by Cell Trace™ Violet staining of CAR T cells (staining agent having been added prior to addition of the T cells to the co-cultures with tumour cells). Staining may be observed, following co-culture, via flow cytometry.
as §5, §6, §7

[9] = system: HUVEC endothelial cells; assay: QPCR of VCAM1, ICAM1 and IL-6 in HUVEC cells treated with sCAR; type: cell-based, human; settings: 24 hours
Description: as §8, §9

[10] = system: CAR T cells; settings: in vitro expansion; inhibitor washed out before adoptive transfer; cited from earlier work

Structure (SMILES)	IL-6 levels in supernatant [1]	IL-8 levels in supernatant [1]	TNF-α secretion (co-culture supernatant) [2]	IL-6 secretion by HUVEC cells [3]	IL-8 supernatant level, HUVEC cells [3]	CAR T cell-induced cancer cell death (percentage of residual tumour cells in the co-culture) [4]	ICAM1 expression (endothelial cell activation) [5]	number of TIM3+ CAR T cells [6]	number of LAG3+ CAR T cells [6]	IL-6 secretion by THP-1 monocytes [7]	CAR T cell proliferation (Cell Trace Violet staining) [8]	ICAM1 mRNA levels [9]	IL-6 mRNA levels [9]	VCAM1 mRNA levels [9]	CAR T cell phenotypes [10]
CC(C)(C)Cn1c(N)nc2ccc(-c3[nH]c(C(C)(C)C)nc3-c3ccc(F)cc3)nc21 [Ralimetinib, 5-[2-tert-Butyl-4-(4-fluorophenyl)-1H-imidazol-5-yl]-3-(2,2-dimethylpropyl)imidazo[4,5-b]pyridin-2-amine]	reduced	(albeit non-significant) downward trend	reduced	significantly reduce	reduced	maintain CAR T cell-induced cancer cell death	reduced	reduce	reduce	significantly reduce	maintain CAR T cell proliferation	significantly reduce	significantly reduce	reduced, albeit non-significantly	
Cc1ccc(C(=O)NC2CC2)cc1-n1ncc(C(=O)c2cccc(C#N)c2)c1N [Acumapimod, 3-[5-amino-4-(3-cyanobenzoyl)pyrazol-1-yl]-N-cyclopropyl-4-methylbenzamide]	reduced	(albeit non-significant) downward trend	reduced	significantly reduce	reduced	maintain CAR T cell-induced cancer cell death	reduced	reduce	reduce	significantly reduce	maintain CAR T cell proliferation	significantly reduce	significantly reduce	reduced, albeit non-significantly	
Cc1ccc(-n2nc(C(C)(C)C)cc2NC(=O)Nc2ccc(OCCN3CCOCC3)c3ccccc23)cc1 [Doramapimod/BIRB796]															promote desirable CAR T cell phenotypes in vitro
